# Assay results from patent US20060069132A1, “Azolecarboxamide herbicides” (priority 2004, published 2006).
# Key:
# barnyardgrass [1] = assay: Test B pre-/postemergence herbicide test; assay type: in vivo, Echinochloa crus-galli; conditions: for Plant response rating (0 to 100 scale), Barnyardgrass: 0 is no effect, 100 is complete control, preemergence; for Barnyardgrass plant response rating: scale 0 (no effect) to 100 (complete control)
# Method in brief: (§1)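 Herbicidal effect was judged by eye on a 0–100 scale after plants stood 13 to 15 days in the greenhouse following pre- or postemergence treatment with surfactant-containing formulations.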
# Surinam grass = assay: Test B pre-/postemergence herbicide test; assay type: in vivo, Urochloa decumbens; conditions: for Plant response rating (0 to 100 scale), Surinam Grass: 0 is no effect, 100 is complete control, preemergence; for Surinam Grass plant response rating: scale 0 (no effect) to 100 (complete control)
# Method in brief: (§2)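 Pre: seeds sown, then sprayed. Post: 1–4-leaf plants (2–18 cm) sprayed at the same time. Paddy: flooded, treated at 2-leaf stage. Formulation: non-phytotoxic solvent with surfactant. Greenhouse 13–15 days; visual 0–100 score relative to controls.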
# cocklebur = assay: Test B pre-/postemergence herbicide test; assay type: in vivo, Xanthium strumarium; conditions: for Plant response rating (0 to 100 scale), Cocklebur: 0 is no effect, 100 is complete control, preemergence; for Cocklebur plant response rating: scale 0 (no effect) to 100 (complete control)
# Method in brief: as §1
# corn = assay: Test B pre-/postemergence herbicide test; assay type: in vivo, Zea mays; conditions: for Plant response rating (0 to 100 scale), Corn: 0 is no effect, 100 is complete control, preemergence; for Corn plant response rating: scale 0 (no effect) to 100 (complete control)
# Method in brief: as §2
# large crabgrass = assay: Test B pre-/postemergence herbicide test; assay type: in vivo, Digitaria sanguinalis; conditions: for Plant response rating (0 to 100 scale), Crabgrass, Large: 0 is no effect, 100 is complete control, preemergence; for Crabgrass, Large plant response rating: scale 0 (no effect) to 100 (complete control)
# Method in brief: as §2
# giant foxtail = assay: Test B pre-/postemergence herbicide test; assay type: in vivo, Setaria faberi; conditions: for Plant response rating (0 to 100 scale), Foxtail, Giant: 0 is no effect, 100 is complete control, preemergence; for Foxtail, Giant plant response rating: scale 0 (no effect) to 100 (complete control)
# Method in brief: as §2
# lambsquarters = assay: Test B pre-/postemergence herbicide test; assay type: in vivo, Chenopodium album; conditions: for Plant response rating (0 to 100 scale), Lambsquarters: 0 is no effect, 100 is complete control, preemergence; for Lambsquarters plant response rating: scale 0 (no effect) to 100 (complete control)
# Method in brief: as §2
# morningglory = assay: Test B pre-/postemergence herbicide test; assay type: in vivo, Ipomoea coccinea; conditions: for Plant response rating (0 to 100 scale), Morningglory: 0 is no effect, 100 is complete control, preemergence; for Morningglory plant response rating: scale 0 (no effect) to 100 (complete control)
# Method in brief: as §1
# pigweed = assay: Test B pre-/postemergence herbicide test; assay type: in vivo, Amaranthus retroflexus; conditions: for Plant response rating (0 to 100 scale), Pigweed: 0 is no effect, 100 is complete control, preemergence; for Pigweed plant response rating: scale 0 (no effect) to 100 (complete control)
# Method in brief: as §2
# velvetleaf = assay: Test B pre-/postemergence herbicide test; assay type: in vivo, Abutilon theophrasti; conditions: for Plant response rating (0 to 100 scale), Velvetleaf: 0 is no effect, 100 is complete control, preemergence; for Velvetleaf plant response rating: scale 0 (no effect) to 100 (complete control)
# Method in brief: as §2
# blackgrass = assay: Test B postemergence herbicide test; assay type: in vivo, Alopecurus myosuroides; conditions: scale 0 (no effect) to 100 (complete control)
# Method in brief: (§3)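 Treated at 2-leaf (paddy) or 1–4-leaf, 2–18 cm (postemergence); greenhouse 13–15 d; visual score vs control, 0 none to 100 complete control; dash = not tested.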
# wheat = assay: Test B postemergence herbicide test; assay type: in vivo, Triticum aestivum; design: key to Wheat plant response rating: 0 = no effect, 100 = complete control
# Method in brief: (§4)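 Visual ratings, 0 (no effect) to 100 (complete control), made versus controls after 13–15 d greenhouse. Paddy plants treated at 2-leaf stage; postemergence plants at 1- to 4-leaf stage, 2–18 cm tall.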
# wild oat = assay: Test B postemergence herbicide test; assay type: in vivo, Avena fatua; conditions: scale 0 (no effect) to 100 (complete control)
# Method in brief: as §4
# rice = assay: Test B flooded paddy test; assay type: in vivo, Oryza sativa; conditions: 1000 g ai/ha, scale 0 to 100 (0 no effect, 100 complete control)
# Method in brief: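 Plants grow to 1- to 4-leaf stage (2–18 cm) for postemergence spraying, or to 2-leaf stage for the paddy test. Formulated compound is applied. Greenhouse holding lasts 13–15 days. Response is scored visually relative to controls, 0 no effect to 100 complete control; a dash means no result.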
# [2] = system: small flower umbrella sedge; assay: Test B flooded paddy test; assay type: in vivo, Cyperus difformis; conditions: 1000 g ai/ha, scale 0 to 100 (0 no effect, 100 complete control)
# Method in brief: as §3
# ducksalad = assay: Test B flooded paddy test; assay type: in vivo, Heteranthera limosa; conditions: 1000 g ai/ha, scale 0 to 100 (0 no effect, 100 complete control)
# Method in brief: as §3
# barnyardgrass [3] = assay: Test B flooded paddy test; assay type: in vivo, Echinochloa crus-galli; conditions: 1000 g ai/ha, scale 0 to 100 (0 no effect, 100 complete control)
# Method in brief: as §3
# [4] = 125 g ai/ha, visual rating, postemergence
# [5] = 125 g ai/ha, visual rating, scale 0 (no effect) to 100 (complete control), postemergence
# [6] = 500 g ai/ha, scale 0 to 100, 0 no effect, 100 complete control, preemergence
# [7] = Postemergence, 500 g ai/ha, scale 0 (no effect) to 100 (complete control)
smiles,measurement,setting,value
Cc1nn(C(C)C)nc1C(=O)Nc1cc(C(=O)N(C)C)ccc1F [Compound 400],"Plant response rating (0 to 100 scale), Barnyardgrass",barnyardgrass [1]; 125 g ai/ha,0
same,Barnyardgrass plant response rating,barnyardgrass [1]; [4],0
same,Barnyardgrass plant response rating,"barnyardgrass [1]; Postemergence, 500 g ai/ha",0
same,"Plant response rating (0 to 100 scale), Surinam Grass",Surinam grass; 125 g ai/ha,0
same,Surinam Grass plant response rating,Surinam grass; [4],0
same,Surinam Grass plant response rating,"Surinam grass; Postemergence, 500 g ai/ha",0
same,"Plant response rating (0 to 100 scale), Cocklebur",cocklebur; 125 g ai/ha,0
same,Cocklebur plant response rating,cocklebur; [4],0
same,Cocklebur plant response rating,"cocklebur; Postemergence, 500 g ai/ha",0
same,"Plant response rating (0 to 100 scale), Corn",corn; 125 g ai/ha,0
same,Corn plant response rating,corn; [4],0
same,Corn plant response rating,"corn; Postemergence, 500 g ai/ha",0
same,"Plant response rating (0 to 100 scale), Crabgrass, Large",large crabgrass; 125 g ai/ha,0
same,"Crabgrass, Large plant response rating",large crabgrass; [4],0
same,"Crabgrass, Large plant response rating","large crabgrass; Postemergence, 500 g ai/ha",0
same,"Plant response rating (0 to 100 scale), Foxtail, Giant",giant foxtail; 125 g ai/ha,0
same,"Foxtail, Giant plant response rating",giant foxtail; [4],0
same,"Foxtail, Giant plant response rating","giant foxtail; Postemergence, 500 g ai/ha",0
same,"Plant response rating (0 to 100 scale), Lambsquarters",lambsquarters; 125 g ai/ha,0
same,Lambsquarters plant response rating,lambsquarters; [4],0
same,Lambsquarters plant response rating,"lambsquarters; Postemergence, 500 g ai/ha",10
same,"Plant response rating (0 to 100 scale), Morningglory",morningglory; 125 g ai/ha,0
same,Morningglory plant response rating,morningglory; [4],0
same,Morningglory plant response rating,"morningglory; Postemergence, 500 g ai/ha",0
same,"Plant response rating (0 to 100 scale), Pigweed",pigweed; 125 g ai/ha,0
same,Pigweed plant response rating,pigweed; [4],0
same,Pigweed plant response rating,"pigweed; Postemergence, 500 g ai/ha",20
same,"Plant response rating (0 to 100 scale), Velvetleaf",velvetleaf; 125 g ai/ha,0
same,Velvetleaf plant response rating,velvetleaf; [4],0
same,Velvetleaf plant response rating,"velvetleaf; Postemergence, 500 g ai/ha",30
same,Blackgrass plant response rating,blackgrass; [4],0
same,Blackgrass plant response rating,"blackgrass; Postemergence, 500 g ai/ha",0
same,Wheat plant response rating,wheat; [5],0
same,Wheat plant response rating,wheat; [6],0
same,Wheat plant response rating,wheat; [7],0
same,"Oat, Wild plant response rating",wild oat; [4],0
same,"Oat, Wild plant response rating","wild oat; Postemergence, 500 g ai/ha",0
same,Rice plant response rating,rice,0
same,"Sedge, Umbrella plant response rating",[2],80
same,Ducksalad plant response rating,ducksalad,20
same,Barnyardgrass plant response rating,barnyardgrass [3],0
CCN(C)C(=O)c1ccc(F)c(NC(=O)c2nn(C(C)C)nc2C)c1 [Compound 403],"Plant response rating (0 to 100 scale), Barnyardgrass",barnyardgrass [1]; 125 g ai/ha,0
same,Barnyardgrass plant response rating,barnyardgrass [1]; [4],0
same,Barnyardgrass plant response rating,"barnyardgrass [1]; Postemergence, 500 g ai/ha",0
same,"Plant response rating (0 to 100 scale), Surinam Grass",Surinam grass; 125 g ai/ha,0
same,Surinam Grass plant response rating,Surinam grass; [4],0
same,Surinam Grass plant response rating,"Surinam grass; Postemergence, 500 g ai/ha",10
same,"Plant response rating (0 to 100 scale), Cocklebur",cocklebur; 125 g ai/ha,0
same,Cocklebur plant response rating,cocklebur; [4],0
same,Cocklebur plant response rating,"cocklebur; Postemergence, 500 g ai/ha",0
same,"Plant response rating (0 to 100 scale), Corn",corn; 125 g ai/ha,0
same,Corn plant response rating,corn; [4],0
same,Corn plant response rating,"corn; Postemergence, 500 g ai/ha",0
same,"Plant response rating (0 to 100 scale), Crabgrass, Large",large crabgrass; 125 g ai/ha,0
same,"Crabgrass, Large plant response rating",large crabgrass; [4],0
same,"Crabgrass, Large plant response rating","large crabgrass; Postemergence, 500 g ai/ha",0
same,"Plant response rating (0 to 100 scale), Foxtail, Giant",giant foxtail; 125 g ai/ha,0
same,"Foxtail, Giant plant response rating",giant foxtail; [4],0
same,"Foxtail, Giant plant response rating","giant foxtail; Postemergence, 500 g ai/ha",0
same,"Plant response rating (0 to 100 scale), Lambsquarters",lambsquarters; 125 g ai/ha,0
same,Lambsquarters plant response rating,lambsquarters; [4],0
same,Lambsquarters plant response rating,"lambsquarters; Postemergence, 500 g ai/ha",10
same,"Plant response rating (0 to 100 scale), Morningglory",morningglory; 125 g ai/ha,0
same,Morningglory plant response rating,morningglory; [4],0
same,Morningglory plant response rating,"morningglory; Postemergence, 500 g ai/ha",0
same,"Plant response rating (0 to 100 scale), Pigweed",pigweed; 125 g ai/ha,0
same,Pigweed plant response rating,pigweed; [4],0
same,Pigweed plant response rating,"pigweed; Postemergence, 500 g ai/ha",0
same,"Plant response rating (0 to 100 scale), Velvetleaf",velvetleaf; 125 g ai/ha,0
same,Velvetleaf plant response rating,velvetleaf; [4],0
same,Velvetleaf plant response rating,"velvetleaf; Postemergence, 500 g ai/ha",10
same,Blackgrass plant response rating,blackgrass; [4],0
same,Blackgrass plant response rating,"blackgrass; Postemergence, 500 g ai/ha",0
same,Wheat plant response rating,wheat; [5],0
same,Wheat plant response rating,wheat; [6],0
same,Wheat plant response rating,wheat; [7],0
same,"Oat, Wild plant response rating",wild oat; [4],0
same,"Oat, Wild plant response rating","wild oat; Postemergence, 500 g ai/ha",0
same,Rice plant response rating,rice,0
same,"Sedge, Umbrella plant response rating",[2],10
same,Ducksalad plant response rating,ducksalad,0
same,Barnyardgrass plant response rating,barnyardgrass [3],0
